The target of series [1] is CYP2C19 (Homo sapiens, UniProt P33261). Description: In vitro CYP inhibition in human liver microsomes, CYP2C19.
Experimental: (§3) 1.1 Working solutions (100×) of sample compounds and standard inhibitors were prepared.
(§4) 1.2 Microsomes were removed from a -80°C refrigerator, thawed on ice, labeled with the date, and stored in the refrigerator immediately after use.
(§5) 1.3 20 µL of substrate solution was added to the corresponding wells, while 20 µL of PB (phosphate buffer) was added to the blank wells.
(§6) 1.4 2 µL of sample compound solution and positive control working solution were added to the appropriate wells, while 2 µL of solvent was added to inhibitor-free wells and blank wells.
(§7) 1.5 HLM (human liver microsome) working solution was prepared.
(§8) 1.6 158 µL of HLM working solution was added to all wells of the plate.
(§9) 1.7 The plate was pre-incubated in a 37°C water bath for approximately 10 minutes.
(§10) 1.8 NADPH (nicotinamide adenosine denucleotide hydro-phosphoric acid, i.e. reduced form coenzyme II) cofactor solution was prepared.
(§11) 1.9 20 µL of NADPH cofactor solution was added to all incubation wells.
(§12) 1.10 The solution was mixed and the plate was placed in 37°C water bath to incubate CYP for 10 minutes.
(§13) 1.11 At designated time points, the reaction was terminated by adding 400 µL of cold stopping solution.
(§14) 1.13 200 µL of the supernatant was transferred into 100 µL of HPLC-grade water and vortexed for 10 minutes.
(§15) 1.14 Samples were subjected to LC/MS/MS analysis.
(§16) Concentration-inhibition percentage curves of the control compound and test compounds were plotted using XL Fit or SigmaPlot, followed by nonlinear regression analysis.
(§17) IC50 values were determined using a 3 or 4 parameter logistic equation.
Series [2] deals with T1, PDE3A (Homo sapiens, UniProt Q14432).
T1 construct: purchased BPS
Briefly: In vitro inhibitory effect on PDE3A enzyme (AMP-Glo assay). Format: biochemical. Here is the method:
(§1) 1. Table 1 Main reagents and consumables for in vitro detection of inhibitory effect
(§2) 2. Preparation of experimental buffers Reaction buffer (5×): 50 mM Tris-HCl (buffer), 50 mM MgCl2, 0.5% BSA, 0.25% Tween-20, pH 7.4, stored at -20°C. 3. […] The starting concentration of the reference substance serial dilution was the Low control, and 1% DMSO-reaction buffer served as the High control. • 3) The enzyme was diluted to the desired concentration with 1× reaction buffer, and 4 µL of the diluted solution was transferred to the assay plate. After centrifugation, the 384-well low dead-volume microplate was sealed with sealing film and incubated in the incubator at 23°C for 15 minutes. • 4) The substrate cAMP was diluted to the desired concentration using 1× reaction buffer, and 5 µL of the diluted solution was transferred to the assay plate. After centrifugation, the plate was sealed again and incubated in the incubator at 23°C for 60 minutes (PDE3A) or 10 minutes (PDE4B1). • 5) Then, 5 µL of Reagent I from the AMP-Glo™ Assay Kit was added to the assay plate. After centrifugation and sealing, the plate was incubated in the incubator at 23°C for 60 minutes. • 6) The detection solution was prepared according to the AMP-Glo™ Assay Kit instructions, and 10 µL of the detection solution was added to the assay plate. After centrifugation and sealing, the plate was incubated in the incubator at 23°C for 60 minutes. • 7) The readout was recorded using a multimode microplate reader. 4. […] 5.

The target of series [3] is CYP3A-M (Homo sapiens, UniProt P08684). Briefly: In vitro CYP inhibition in human liver microsomes, CYP3A-M. Conditions: microsomes. (Microsomes from liver hold many membrane-bound enzymes, among them those of drug oxidation.)
Experimental: as §3, §4, §5, §6, §7, §8, §9, §10, §11, §12, §16, §17
For series [4], the target named is CYP1A2 (Homo sapiens, UniProt P05177). Briefly: In vitro CYP inhibition in human liver microsomes, CYP1A2.
Experimental: as §3, §4, §5, §6, §7, §8, §9, §10, §11, §12, §13, §14, §15, §16, §17
The target in series [5] is CYP2C9 (Homo sapiens, UniProt P11712). Description: In vitro CYP inhibition in human liver microsomes, CYP2C9.
Experimental: as §3, §4, §5, §6, §7, §8, §9, §10, §11, §12, §13, §14, §15, §16, §17
In series [6] the target is CYP2D6 (Homo sapiens, UniProt P10635). Briefly: In vitro CYP inhibition in human liver microsomes, CYP2D6.
Experimental: as §3, §4, §5, §6, §7, §8, §9, §10, §11, §12, §13, §14, §15, §16, §17
Series [7] has as its target T2, PDE4B1 (Homo sapiens, UniProt Q07343).
T2 construct: purchased Sigma
Briefly: In vitro inhibitory effect on PDE4B1 enzyme (AMP-Glo assay). Format: biochemical. Here is the method: as §1, §2

Structures are written as SMILES.

Sequence of CYP2D6 (P10635 whole entry): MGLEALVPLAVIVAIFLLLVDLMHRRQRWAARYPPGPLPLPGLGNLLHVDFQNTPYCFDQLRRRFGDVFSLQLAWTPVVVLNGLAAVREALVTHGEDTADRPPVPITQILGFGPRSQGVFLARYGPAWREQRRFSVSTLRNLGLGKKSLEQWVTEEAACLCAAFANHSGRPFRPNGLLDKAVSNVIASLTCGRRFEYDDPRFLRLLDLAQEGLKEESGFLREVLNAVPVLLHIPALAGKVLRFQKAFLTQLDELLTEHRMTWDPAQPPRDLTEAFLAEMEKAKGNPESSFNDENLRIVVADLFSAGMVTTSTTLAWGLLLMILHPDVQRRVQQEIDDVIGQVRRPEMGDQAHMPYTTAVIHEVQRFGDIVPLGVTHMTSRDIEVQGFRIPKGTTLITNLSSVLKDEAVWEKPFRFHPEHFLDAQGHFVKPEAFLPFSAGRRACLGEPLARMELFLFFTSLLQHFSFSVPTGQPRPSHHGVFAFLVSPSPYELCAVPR
Sequence of CYP1A2 (P05177 whole entry): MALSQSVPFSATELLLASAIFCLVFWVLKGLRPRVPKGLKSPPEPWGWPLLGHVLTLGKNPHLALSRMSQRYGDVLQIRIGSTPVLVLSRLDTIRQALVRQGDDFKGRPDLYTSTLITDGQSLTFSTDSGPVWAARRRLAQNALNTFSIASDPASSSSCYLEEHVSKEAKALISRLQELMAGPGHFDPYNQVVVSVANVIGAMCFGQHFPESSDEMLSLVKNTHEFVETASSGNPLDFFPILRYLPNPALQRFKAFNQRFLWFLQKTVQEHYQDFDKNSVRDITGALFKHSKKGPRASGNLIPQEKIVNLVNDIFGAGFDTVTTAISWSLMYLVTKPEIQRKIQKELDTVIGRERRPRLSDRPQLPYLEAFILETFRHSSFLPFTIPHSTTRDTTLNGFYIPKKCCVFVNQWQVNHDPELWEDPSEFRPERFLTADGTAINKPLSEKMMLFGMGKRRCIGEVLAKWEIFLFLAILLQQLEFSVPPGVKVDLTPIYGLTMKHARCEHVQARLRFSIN
Sequence of CYP2C9 (P11712 whole entry): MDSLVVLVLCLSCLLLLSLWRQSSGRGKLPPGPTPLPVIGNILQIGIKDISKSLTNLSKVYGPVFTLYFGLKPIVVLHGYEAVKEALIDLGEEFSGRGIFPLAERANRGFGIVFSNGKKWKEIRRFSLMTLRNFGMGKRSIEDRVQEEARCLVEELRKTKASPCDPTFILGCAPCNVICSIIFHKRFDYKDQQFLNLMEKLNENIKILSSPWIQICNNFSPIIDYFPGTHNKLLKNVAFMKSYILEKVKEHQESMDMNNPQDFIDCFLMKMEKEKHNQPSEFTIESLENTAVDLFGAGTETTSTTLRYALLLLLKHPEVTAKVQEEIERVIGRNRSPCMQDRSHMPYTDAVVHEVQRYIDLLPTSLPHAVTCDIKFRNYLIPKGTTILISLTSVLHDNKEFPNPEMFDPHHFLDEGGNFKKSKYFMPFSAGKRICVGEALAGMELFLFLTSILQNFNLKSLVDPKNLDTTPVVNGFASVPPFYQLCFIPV
Sequence of CYP2C19 (P33261 whole entry): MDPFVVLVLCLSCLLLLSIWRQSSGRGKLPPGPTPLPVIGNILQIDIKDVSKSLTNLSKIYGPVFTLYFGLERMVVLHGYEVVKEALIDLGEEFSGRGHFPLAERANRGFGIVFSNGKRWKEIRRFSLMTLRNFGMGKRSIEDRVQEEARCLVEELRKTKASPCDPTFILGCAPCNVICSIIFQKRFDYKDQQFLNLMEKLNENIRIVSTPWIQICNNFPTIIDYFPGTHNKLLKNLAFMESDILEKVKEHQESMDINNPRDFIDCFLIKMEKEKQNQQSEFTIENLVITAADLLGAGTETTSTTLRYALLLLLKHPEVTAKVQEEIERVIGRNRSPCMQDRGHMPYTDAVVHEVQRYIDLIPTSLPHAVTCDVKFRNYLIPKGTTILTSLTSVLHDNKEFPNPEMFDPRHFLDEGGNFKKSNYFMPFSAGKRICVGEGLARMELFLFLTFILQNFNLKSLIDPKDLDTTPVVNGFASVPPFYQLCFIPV
T1 sequence (Q14432 whole entry): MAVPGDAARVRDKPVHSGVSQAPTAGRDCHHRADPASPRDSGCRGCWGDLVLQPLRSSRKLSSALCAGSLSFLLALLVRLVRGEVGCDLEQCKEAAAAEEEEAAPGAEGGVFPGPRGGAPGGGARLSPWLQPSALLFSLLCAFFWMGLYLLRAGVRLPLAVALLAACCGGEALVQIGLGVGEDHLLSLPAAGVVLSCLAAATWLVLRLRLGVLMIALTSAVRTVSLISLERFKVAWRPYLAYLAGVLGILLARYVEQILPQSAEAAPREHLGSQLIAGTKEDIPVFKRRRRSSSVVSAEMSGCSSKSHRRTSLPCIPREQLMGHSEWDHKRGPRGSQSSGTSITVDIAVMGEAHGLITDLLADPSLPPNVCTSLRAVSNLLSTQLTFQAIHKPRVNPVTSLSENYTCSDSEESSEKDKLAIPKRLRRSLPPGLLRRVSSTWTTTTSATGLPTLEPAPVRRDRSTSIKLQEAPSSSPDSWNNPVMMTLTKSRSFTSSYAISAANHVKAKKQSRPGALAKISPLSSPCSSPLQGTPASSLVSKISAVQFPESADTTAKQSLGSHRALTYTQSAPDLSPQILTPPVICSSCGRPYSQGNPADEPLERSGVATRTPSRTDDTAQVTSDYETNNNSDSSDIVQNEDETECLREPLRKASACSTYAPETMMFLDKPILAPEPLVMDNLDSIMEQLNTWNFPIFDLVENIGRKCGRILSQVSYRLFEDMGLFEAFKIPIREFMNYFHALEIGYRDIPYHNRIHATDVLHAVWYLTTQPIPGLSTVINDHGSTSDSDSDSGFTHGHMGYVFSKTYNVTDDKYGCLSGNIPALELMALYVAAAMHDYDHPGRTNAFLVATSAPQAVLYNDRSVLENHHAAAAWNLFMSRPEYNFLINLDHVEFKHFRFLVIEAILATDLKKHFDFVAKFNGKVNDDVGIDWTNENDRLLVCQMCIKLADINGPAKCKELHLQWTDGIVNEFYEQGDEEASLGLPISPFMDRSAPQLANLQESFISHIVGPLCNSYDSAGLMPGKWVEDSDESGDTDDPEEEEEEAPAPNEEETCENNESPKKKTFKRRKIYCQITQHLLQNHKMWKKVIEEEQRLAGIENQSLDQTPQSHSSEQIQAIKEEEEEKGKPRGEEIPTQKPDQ
Sequence of CYP3A-M (P08684 2-503): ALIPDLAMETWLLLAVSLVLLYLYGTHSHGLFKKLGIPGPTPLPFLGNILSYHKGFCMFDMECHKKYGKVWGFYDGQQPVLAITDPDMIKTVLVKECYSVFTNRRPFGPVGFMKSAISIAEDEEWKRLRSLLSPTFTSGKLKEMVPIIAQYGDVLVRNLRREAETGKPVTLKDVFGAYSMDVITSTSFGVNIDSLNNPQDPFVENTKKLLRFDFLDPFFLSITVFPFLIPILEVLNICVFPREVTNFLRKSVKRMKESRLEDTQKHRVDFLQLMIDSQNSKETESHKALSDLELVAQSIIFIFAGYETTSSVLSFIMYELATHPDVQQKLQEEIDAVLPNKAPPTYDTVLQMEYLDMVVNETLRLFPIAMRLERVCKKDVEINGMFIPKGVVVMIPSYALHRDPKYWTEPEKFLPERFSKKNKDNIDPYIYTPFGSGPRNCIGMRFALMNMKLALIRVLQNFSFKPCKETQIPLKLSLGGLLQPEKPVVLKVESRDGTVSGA
T2 sequence (Q07343 whole entry): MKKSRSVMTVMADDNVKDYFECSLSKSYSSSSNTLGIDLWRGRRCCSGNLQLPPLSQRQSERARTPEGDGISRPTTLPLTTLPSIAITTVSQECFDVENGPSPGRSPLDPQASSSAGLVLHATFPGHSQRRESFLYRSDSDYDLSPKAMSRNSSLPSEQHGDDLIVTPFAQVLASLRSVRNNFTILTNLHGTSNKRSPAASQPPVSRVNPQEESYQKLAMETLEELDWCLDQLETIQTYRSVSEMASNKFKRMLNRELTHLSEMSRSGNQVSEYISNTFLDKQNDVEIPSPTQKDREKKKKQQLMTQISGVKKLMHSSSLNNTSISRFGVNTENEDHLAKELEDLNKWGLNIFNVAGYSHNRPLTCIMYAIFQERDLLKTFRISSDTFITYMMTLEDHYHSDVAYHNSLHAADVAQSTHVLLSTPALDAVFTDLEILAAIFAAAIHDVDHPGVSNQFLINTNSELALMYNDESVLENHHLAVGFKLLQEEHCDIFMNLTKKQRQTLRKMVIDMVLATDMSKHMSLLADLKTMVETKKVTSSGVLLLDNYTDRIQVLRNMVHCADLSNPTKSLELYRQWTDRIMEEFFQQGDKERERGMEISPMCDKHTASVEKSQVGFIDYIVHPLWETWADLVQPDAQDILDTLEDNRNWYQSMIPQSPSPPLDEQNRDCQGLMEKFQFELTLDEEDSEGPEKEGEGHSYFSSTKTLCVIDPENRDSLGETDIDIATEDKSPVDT

`CCOc1cc2c(cc1OC)-c1cc(N(c3c(C)cc(C)cc3C)C(CO)CO)nc(=O)n1CC2` [Compound 80]: the IC50 (commonly the concentration at which inhibition is half-maximal) in series [1] was 31.5 µM; in series [2], 2.8 pM; in series [4], over 50 µM; in series [5] it was 10.1 µM; in series [6], over 50 µM; in series [7] it was 7.4 nM. Further, in series [3], the IC50 at 10 min is 43.5 µM.

As for `CCOc1cc2c(cc1OC)-c1cc(N(CCC(=O)NCCO)c3c(C)cc(C)cc3C)nc(=O)n1CC2` [Compound 82], the IC50 in series [1] was over 50 µM; in series [2], 88 pM; in series [4] it was over 50 µM; in series [5], 9.35 µM; in series [6], over 50 µM; in series [7] it was 14.2 nM. In series [3], this compound showed an IC50 at 10 min of 42.8 µM.

On to `CCOc1cc2c(cc1OC)-c1cc(N(CCC(=O)O)c3c(C)cc(C)cc3C)nc(=O)n1CC2` [Compound 61], for which the IC50 was over 50 µM in series [1]; 6.1 pM in series [2]; over 50 µM in series [4]; over 50 µM in series [5]; over 50 µM in series [6]; 11.1 nM in series [7]. In series [3], this compound came in with a 50% inhibitory concentration (IC50) at 10 min of over 50 µM.
